Values after ≈ are worked out from the molar mass of the structure shown. Where two headings read alike, the source gives them in different places.
Experiments:
[1] = tested on: Schistosoma mansoni 21-day-old schistosomules; experiment: Effect on 21-day-old schistosomules in infected mice; type: in vivo; conditions: po, 200 mg/kg, 504 h
Protocol: Mice were infected with 100 Schistosoma mansoni cercariae on day 21 post-treatment. Each group was treated per os with trioxolanes at a single dose of 200 mg/kg. […] All groups were killed 4 weeks after treatment and the liver and intestine were removed and separated. The liver and intestine were compressed and alive male and female worms could be seen and counted. The effect of the compounds was evaluated by mean total and female worm burden.

P. berghei ANKA strain [2] = experiment: Onset of action and recrudescence experiment, single 100 mg/kg po; type: in vivo, Plasmodium berghei; conditions: single 100 mg/kg po (SSV) on day +3 post-infection; recrudescence = >5% parasitemia; followed up to 60 days; groups of five
Protocol: The onset of drug action was determined after a single fixed dose of 100 mg/kg (SSV vehicle) po to groups of five animals on day +3 post-infection (day 0).
(§1) Moro NMRI male mice (Fu Albino specific pathogen free) weighing 18±2 g were infected intravenously (i.v.) with 2×10^7 P. berghei ANKA strain-infected erythrocytes from donor mice on day 0 of the experiment. From donor mice with circa 30% parasitemia, heparinized blood was taken and diluted in physiological saline to 10^8 parasitized erythrocytes per ml. An aliquot (0.2 ml) of this suspension was injected i.v. into experimental and control groups of mice. […] Throughout the experiments, mice were kept in groups of three or five animals in Makrolon type II cages in an air-conditioned animal room at 22 to 23° C.

[3] = tested on: ANKA strain of Plasmodium berghei; experiment: Single dose ED50/ED90/ED99 determination in infected mice; type: in vivo
Method in brief: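 Moro SPF or NMRI mice (three per group) infected with P. berghei ANKA were dosed once on day 1 post-infection in SSV (0.5% CMC, 0.5% benzyl alcohol, 0.4% Tween 80, 0.9% NaCl). Parasitemia reduction was scored on day 3; ED values (mg/kg) came from nonlinear fitting.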

Schistosoma japonicum = experiment: Effect in mice infected with Schistosoma japonicum; type: in vivo; conditions: age of worm 35 days, 400 mg/kg x 1
[4] = tested on: chloroquine-resistant K1 strain of P. falciparum; experiment: In vitro antimalarial semiautomated microdilution assay ([3H]-hypoxanthine incorporation), K1 strain; type: cell-based, Plasmodium falciparum; conditions: Plasmodium falciparum, read-out: IC50 (ng/ml) K1
Method in brief: (§2)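 Semiautomated microdilution against intraerythrocytic P. falciparum from asynchronous stock cultures, with growth tracked by [3H]-hypoxanthine incorporation. IC50 values were estimated by Logit regression analysis.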

[5] = tested on: ANKA strain of P. berghei; experiment: Single dose STI in vivo screen in infected mice; set-up: species or system Plasmodium berghei; conditions: for Survival (days) 3 mg/kg SSV po / Activity (%) 3 mg/kg SSV po: single 3 mg/kg po in SSV; for Activity (%) 3 mg/kg SSV po / Activity (%) 10 mg/kg SSV po: percent reduction in parasitemia on day 3; for Survival (days) 10 mg/kg SSV po: single 10 mg/kg po in SSV, untreated 6-7 days; for Activity (%) 10 mg/kg SSV po: single 10 mg/kg po in standard suspending vehicle (SSV) on day 1 post-infection
P. berghei ANKA strain [6] = experiment: Prophylactic activity, single 100 mg/kg po at various times before infection; type: in vivo, Plasmodium berghei; conditions: parasitemia reduction on day 3 post-infection; for Prophylactic Activity (%) 24 h: single 100 mg/kg po 24 h before infection; for Prophylactic Activity (%) 0 h: single 100 mg/kg po at 0 h
Protocol: as §1
Prophylactic activities of the compounds were compared after administering po single dose of 100 mg/kg to different groups of five animals at various times before infection. All groups including an untreated control group, were then infected at the same time. Parasitemia was determined for each animal on day 3 post-infection, and percent of reduction of the level of parasitemia compared to levels for animals given no drug is determined.

[7] = tested on: Schistosoma mansoni adult worms (49-day-old); experiment: Effect on adult schistosomes (49-day-old) in infected mice; type: in vivo; conditions: po, 400 mg/kg, 1176 h
Protocol: Mice were infected with 100 Schistosoma mansoni cercariae on day 49 post-treatment. Each group was treated per os with OZ compounds at single doses of 200, 400, and 600 mg/kg. Untreated mice served as the control. All groups were killed 4 weeks after treatment and the liver and intestine were removed and separated. The liver and intestine were compressed and alive male and female worms could be seen and counted.

[8] = tested on: chloroquine-sensitive NF54 strain of P. falciparum; experiment: In vitro antimalarial semiautomated microdilution assay ([3H]-hypoxanthine incorporation), NF54 strain; type: cell-based, Plasmodium falciparum; conditions: Plasmodium falciparum, read-out: IC50 (ng/ml) NF54
Method in brief: as §2

P. berghei ANKA strain [9] = experiment: Divided 3x3 mg/kg and 3x1 mg/kg po doses in infected mice; type: in vivo, Plasmodium berghei
Protocol: as §1
(§3) They were administered per os (p.o.) in a total volume of 0.01 ml per gram of mouse. The activity of the compound was determined by a variety of methods outlined in subsequent sections. Survival time was also recorded, and survival to day 30 post-infection was considered to be a cure.
The second experiment consists of administration of divided 3×3 mg/kg and 3×1 mg/kg po doses administered on days 1, 2, and 3 post-infection. On day 4 post-infection, blood smears of all animals were prepared and stained with Giemsa. […] Compounds were administered orally in the SSV vehicle.

[10] = Pharmacokinetics in rats (IV and oral dosing); conditions: in vivo, po, 25 mg/kg
From the text: Artesunate is listed as a reference compound.

P. berghei ANKA strain [11] = experiment: Divided 3x10 mg/kg vs single 1x30 mg/kg po dose in infected mice; type: in vivo, Plasmodium berghei; conditions: for Cures 3 × 10 mg/kg p.o. SSV: 10 mg/kg po on days 1, 2, 3; for Cures 3 × 10 mg/kg p.o. SSV / Cures 1 × 30 mg/kg p.o. SSV: cure = survival to day 30 post-infection; for Cures 1 × 30 mg/kg p.o. SSV: single 30 mg/kg po
Protocol: as §1, §3
The first experiment conducted consisted of administration of a divided 3×10 mg/kg p.o. dose administered on days 1, 2, and 3 post-infection vs. a single 1×30 mg/kg po dose administered on day 1 post-infection. On day 4 post-infection, blood smears of all animals were prepared and stained with Giemsa. […] Compounds were administered orally in the SSV vehicle.

[12] = single dose po in SSV on day 1 post-infection, parasitemia day 3, nonlinear fitting
[13] = 3 × 1 mg/kg p.o. SSV on days 1, 2, 3 post-infection
[14] = 3 × 3 mg/kg p.o. SSV on days 1, 2, 3 post-infection
[15] = 3 × 3 mg/kg p.o. SSV on days 1, 2, 3 post-infection, percent reduction of parasitemia vs control on day 4
[16] = 10 mg/kg po on days 1, 2, 3 post-infection
[17] = single 30 mg/kg po on day 1 post-infection

For CO[C@H]1O[C@@H]2O[C@@]3(C)CC[C@H]4[C@H](C)CC[C@@H]([C@H]1C)[C@@]24OO3 [AM, artemether, reference compound], the “% reduction of schistosomule growth at day 21 after per os application of 200 mg/kg, FWR (%)” value [1] was “(n2) 78%”, the “% reduction of schistosomule growth at day 21 after per os application of 200 mg/kg, TWR (%)” value [1] was “(n2) 81%” and the “Time of Recrudescence” value (P. berghei ANKA strain [2]) was 12.0 days. The ED50 ([3]; Plasmodium berghei, single dose po in SSV on day 1 post-infection, parasitemia day 3, nonlinear fitting, read-out: ED50) was 2.2 mg/kg, the “ED90” value ([3]; po) was 4.2 mg/kg and the “ED99” value [3, 12] was 7.1 mg/kg. For the same molecule, the “Mice without female worm” value (Schistosoma japonicum) was 0/7, the “MFWB (mean female worm burden) x ± SD” value (Schistosoma japonicum; control 11.6 ± 2.4) was 3.4 ± 1.6 and the “MTWB (mean total worm burden) x ± SD” value (Schistosoma japonicum; control 26.6 ± 4.2) was 10.1 ± 4.4. The IC50 ([4]; chloroquine-resistant K1 strain, 72 h incubation) was 0.45 ng/mL (≈ 1.51 nM), the “Survival (days) 3 mg/kg SSV po” value [5] was 8.7 days and the “Activity (%) 3 mg/kg SSV po” value [5] was 79%. The “Survival (days) 10 mg/kg SSV po” value [5] was 9.4 days, the “Activity (%) 10 mg/kg SSV po” value [5] was 99.75% and the “Prophylactic Activity (%) 24 h” value (P. berghei ANKA strain [6]) was 0%. The “Prophylactic Activity (%) 0 h” value (P. berghei ANKA strain [6]) was 100%, the “% reduction of adult worms growth at day 49 after per os application of 400 mg/kg, TWR (%)” value [7] was 53% and the “Adult worms day 49, per os 400 mg/kg, DEAD WORM (%)” value [7] was 29%. For the same molecule, the IC50 ([8]; chloroquine-sensitive NF54 strain, 72 h incubation) was 0.36 ng/mL (≈ 1.21 nM), the “Survival” value (P. berghei ANKA strain [9]; [13]) was 7.2 days and the “Survival” value (P. berghei ANKA strain [9]; [14]) was 9.4 days. The “Activity (%)” value (P. berghei ANKA strain [9]; [15]) was 86%, the “Activity (%)” value (P. berghei ANKA strain [9]; po, 1 mg/kg, 96 h) was 51% and the Cures (P. berghei ANKA strain [9]; po, 3 mg/kg, 720 h) was 0\5.
For C[C@H]1[C@H](OC(=O)CCC(=O)O)O[C@@H]2O[C@@]3(C)CC[C@H]4[C@H](C)CC[C@@H]1[C@@]24OO3 [AS, artesunate, reference compound], the “Time of Recrudescence” value (P. berghei ANKA strain [2]) was 8.6 days, the “ED50” value [3, 12] was 4.7 mg/kg and the “ED90” value [3, 12] was 19 mg/kg. For the same molecule, the “ED99” value [3, 12] was 60 mg/kg, the “Survival (days) 3 mg/kg SSV po” value [5] was 8.0 days and the “Activity (%) 3 mg/kg SSV po” value [5] was 66%. The “Survival (days) 10 mg/kg SSV po” value [5] was 7.0 days, the “Activity (%) 10 mg/kg SSV po” value [5] was 87% and the “Prophylactic Activity (%) 24 h” value (P. berghei ANKA strain [6]) was 6.28%. The “Prophylactic Activity (%) 0 h” value (P. berghei ANKA strain [6]) was 92.44%, the “Rat Oral Bioavailability 25 mg/kg (DHA)” value [10] was 21% and the “Survival” value (P. berghei ANKA strain [9]; [13]) was 6.8 days. The “Activity (%)” value (P. berghei ANKA strain [9]; 3 × 1 mg/kg p.o. SSV on days 1, 2, 3 post-infection, percent reduction of parasitemia vs control on day 4) was 39%, the “Survival” value (P. berghei ANKA strain [9]; [14]) was 9.4 days and the “Activity (%)” value (P. berghei ANKA strain [9]; [15]) was 78%. For the same molecule, the “Cures 3 × 10 mg/kg p.o. SSV” value (P. berghei ANKA strain [11]) was 0/5, the “Survival (days) 3 × 10 mg/kg p.o. SSV” value (P. berghei ANKA strain [11]; [16]) was 11 days and the “Activity (%) 3 × 10 mg/kg p.o. SSV” value (P. berghei ANKA strain [11]; 10 mg/kg po on days 1, 2, 3 post-infection, parasitemia reduction on day 4) was 98.62%. The “Survival (days) 1 × 30 mg/kg p.o. SSV” value (P. berghei ANKA strain [11]; [17]) was 9 days, the “Activity (%) 1 × 30 mg/kg p.o. SSV” value (P. berghei ANKA strain [11]; single 30 mg/kg po on day 1 post-infection, parasitemia reduction on day 4) was 83.83% and the “Cures 1 × 30 mg/kg p.o. SSV” value (P. berghei ANKA strain [11]) was 0/5.
For CCN(CC)CCCC(C)Nc1ccnc2cc(Cl)ccc12 (stereo not drawn) [CQ, chloroquine, reference compound], the “Time of Recrudescence” value (P. berghei ANKA strain [2]) was 17.8 days, the “ED99” value [3, 12] was 5.9 mg/kg and the IC50 ([4]; K1, 72 h) was 76 ng/mL (≈ 238 nM). For the same molecule, the “Survival (days) 3 mg/kg SSV po” value [5] was 8.0 days, the “Survival (days) 10 mg/kg SSV po” value [5] was 9.0 days and the IC50 ([8]; NF54, 72 h) was 4.4 ng/mL (≈ 13.8 nM). For the same molecule, the “Survival” value (P. berghei ANKA strain [9]; [13]) was 7.2 days, the “Survival” value (P. berghei ANKA strain [9]; [14]) was 10 days and the “Cures 3 × 10 mg/kg p.o. SSV” value (P. berghei ANKA strain [11]) was 0/5. For the same molecule, the “Survival (days) 3 × 10 mg/kg p.o. SSV” value (P. berghei ANKA strain [11]; [16]) was 14.3 days, the “Survival (days) 1 × 30 mg/kg p.o. SSV” value (P. berghei ANKA strain [11]; [17]) was 9.5 days and the “Cures 1 × 30 mg/kg p.o. SSV” value (P. berghei ANKA strain [11]) was 0/5.

Reference: patent US6825230B2, “Spiro and dispiro 1,2,4-trixolane antimalarials” (Medicines for Malaria Venture MMV, priority 2002, dated 2004)
